In US9029389B2 (Institut Pasteur Korea, priority 2011, dated 2015) one finds inhibition and IC50 data, which are given here for 30 compounds.

This experiment has as its target T1, Human 5-lipoxygenase (Homo sapiens, UniProt P09917).
T1 construct: purchased Cayman 60402; host or cells: insect cells
T1 sequence (P09917 1-674): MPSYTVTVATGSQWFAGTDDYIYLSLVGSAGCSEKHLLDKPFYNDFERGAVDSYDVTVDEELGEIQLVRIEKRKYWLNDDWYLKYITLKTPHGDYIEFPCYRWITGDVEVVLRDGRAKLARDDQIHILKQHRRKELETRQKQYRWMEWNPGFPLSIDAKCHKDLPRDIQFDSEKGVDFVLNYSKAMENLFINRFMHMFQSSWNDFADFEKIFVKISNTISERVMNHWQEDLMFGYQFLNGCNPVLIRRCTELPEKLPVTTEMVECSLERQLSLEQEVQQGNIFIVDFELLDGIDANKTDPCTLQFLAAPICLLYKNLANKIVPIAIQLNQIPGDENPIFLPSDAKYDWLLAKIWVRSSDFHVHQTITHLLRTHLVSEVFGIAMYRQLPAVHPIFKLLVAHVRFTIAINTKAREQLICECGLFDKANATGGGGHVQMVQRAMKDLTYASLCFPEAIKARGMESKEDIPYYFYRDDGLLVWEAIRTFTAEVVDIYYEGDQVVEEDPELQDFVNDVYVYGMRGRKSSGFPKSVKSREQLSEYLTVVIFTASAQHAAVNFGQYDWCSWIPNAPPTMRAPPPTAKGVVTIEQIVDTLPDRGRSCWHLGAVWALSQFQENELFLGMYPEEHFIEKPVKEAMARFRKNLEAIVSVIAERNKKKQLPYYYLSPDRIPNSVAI
Nature of the experiment: Activity of compounds against 5-LO enzyme (LTB4 measurement and/or fluorescence method). In kind it is biochemical. The settings on record: for inhibition at 10 µM: 5-LO, single concentration of 10 uM in duplicate; for IC50: 6 or 11 point dose response in duplicate. Put shortly: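 Two read-outs: LTB4 measured by EIA and/or LC/MS/MS with LTB4-d4 standard after 15 min RT compound preincubation with insect-cell 5-LO and a 5 min 37 °C reaction on 3 uM arachidonic acid (0.1 mM ATP, pH 7.4). The room-temperature fluorescence format used 20 uM H2DCFDA, 100 uM ATP, 3 uM arachidonic acid, 5 min; IC50 from 6/11-point curves.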

A word on the inhibition: it is the change of the read-out against control, counted positive when it falls. What is called IC50 is the concentration at which inhibition is half-maximal.

For the compound `CCc1nc2cc(Cl)ccn2c1C(=O)NCc1ccc(Nc2ccc(OC(F)(F)F)cc2)cc1` [compound 175, 7-Chloro-2-ethyl-N-(4-(4-(trifluoromethoxy)phenylamino)benzyl)imidazo[1,2-a]pyridine-3-carboxamide], the inhibition at 10 µM was > 69% and the IC50 was 1 to 20 µM.

For `CCc1nc2ccc(Br)cn2c1C(=O)NCc1ccc(OC(F)(F)F)cc1` [compound 176, 6-Bromo-2-ethyl-N-(4-(trifluoromethoxy)benzyl)imidazo[1,2-a]pyridine-3-carboxamide], the inhibition at 10 µM lay within 40 to 69%.

Take `CCc1nc2ccc(Br)cn2c1C(=O)NCc1ccc(Oc2ccc(F)cc2)cc1` [compound 177, 6-Bromo-2-ethyl-N-(4-(4-fluorophenoxy)benzyl)imidazo[1,2-a]pyridine-3-carboxamide]: the inhibition at 10 µM was < 40%.

On to `CCc1nc2cc(Cl)c(Cl)cn2c1C(=O)NCc1ccc(OC(F)(F)F)cc1` [compound 178, 6,7-Dichloro-2-ethyl-N-(4-(trifluoromethoxy)benzyl)imidazo[1,2-a]pyridine-3-carboxamide], for which the inhibition at 10 µM is < 40%.

`CCc1nc2cc(Cl)c(Cl)cn2c1C(=O)NCc1ccc(N2CCN(Cc3ccc(F)cc3)CC2)cc1` [compound 179, 6,7-Dichloro-2-ethyl-N-(4-(4-(4-fluorobenzyl)piperazin-1-yl)benzyl)imidazo1,2-al pyridine-3-carboxamide] returned an inhibition at 10 µM of 40 to 69%.

For the compound `CCc1nc2cc(Cl)c(Cl)cn2c1C(=O)NCc1ccc(N2CCN(c3ccc(F)cc3)CC2)cc1` [compound 180, 6,7-Dichloro-2-ethyl-N-(4-(4-(4-fluorophenyl)piperazin-1-yl)benzyl)imidazo[1,2-a]pyridine-3-carboxamide], the inhibition at 10 µM is < 40%.

In the case of `CCc1nc2ccc(Cl)cn2c1C(=O)NCc1ccc2[nH]c(-c3ccc(OC(F)(F)F)cc3)nc2c1` [compound 185, 6-Chloro-2-ethyl-N-((2-(4-(trifluoromethoxy)phenyl)-1H-benzo[d]imidazol-5-yl)methyl)imidazo[1,2-a]pyridine-3-carboxamide], the inhibition at 10 µM was in the range of 40 to 69%.

For `CCc1nc2cc(Cl)ccn2c1C(=O)NCc1ccc2[nH]c(-c3ccc(OC(F)(F)F)cc3)nc2c1` [compound 186, 7-Chloro-2-ethyl-N-((2-(4-(trifluoromethoxy)phenyl)-1H-benzo[d]imidazol-5-yl)methyl)imidazo[1,2-a]pyridine-3-carboxamide], the inhibition at 10 µM lay within 40 to 69%.

Turning to `CCc1nc2cc(Cl)ccn2c1C(=O)NCc1ccc(Oc2ccc(OC(F)(F)F)cc2)nc1` [compound 190, 7-Chloro-2-ethyl-N-((6-(4-(trifluoromethoxy)phenoxy)pyridin-3-yl)methy)imidazo[1,2-a]pyridine-3-carboxamide], the inhibition at 10 µM was > 69% and the IC50 was in the range of 1 to 20 µM.

Take `CCc1nc2ccc(Cl)cn2c1C(=O)NCc1ccc(N2CCCCCC2)cc1` [compound 192, N-(4-(Azepan-1-yl)benzyl)-6-chloro-2-ethylimidazo[1,2-a]pyridine-3-carboxamide]: the inhibition at 10 µM lay within 40 to 69%.

`CCc1nc2cc(Cl)ccn2c1C(=O)NCc1ccc(N2CCCCCC2)cc1` [compound 193, N-(4-(Azepan-1-yl)benzyl)-7-chloro-2-ethylimidazo[1,2-a]pyridine-3-carboxamide]: the inhibition at 10 µM is > 69% and the IC50 was > 20 µM.

Consider `CCc1nc2cc(Cl)ccn2c1C(=O)NCc1ccc(N2CC=CCC2)cc1` [compound 194, 7-Chloro-N-(4-(5,6-dihydropyridin-1(2H)-yl)benzyl)-2-ethylimidazo[1,2-a]pyridine-3-carboxamide], for which the inhibition at 10 µM was > 69% and the IC50 was > 20 µM.

For the compound `CCc1nc2cc(Cl)ccn2c1C(=O)NCc1ccc(N2CCC(C)CC2)cc1` [compound 195, 7-Chloro-2-ethyl-N-(4-(4-methylpiperidin-1-yl)benzyl)imidazo[1,2-a]pyridine-3-carboxamide], the inhibition at 10 µM is 40 to 69%.

As for `CCc1nc2cc(Cl)ccn2c1C(=O)NCc1ccc2[nH]c(CN3CCOCC3)nc2c1` [compound 196, 7-Chloro-2-ethyl-N-((2-(morpholinomethyl)-1H-benzo[d]imidazol-5-yl)methyl)imidazo[1,2-a]pyridine-3-carboxamide], the inhibition at 10 µM is < 40%.

The compound `CCc1nc2cc(Cl)ccn2c1C(=O)NCc1ccc(N2CCC(=O)CC2)cc1` [compound 200, 7-Chloro-2-ethyl-N-(4-(4-oxopiperidin-1-yl)benzyl)imidazo[1,2-a]pyridine-3-carboxamide] showed an inhibition at 10 µM of 40 to 69%.

The compound `CCc1nc2cc(Cl)ccn2c1C(=O)NCc1ccc(N2CC3CC=CCC3C2)cc1` (stereo not shown) [compound 202, 7-Chloro-N-(4-(3a,4-dihydro-1H-isoindol-2(3H7H,7aH)-yl)benzyl)-2-ethylimidazo[1,2-a]pyridine-3-carboxamide] showed an inhibition at 10 µM of 40 to 69%.

On to `CCc1nc2cc(Cl)ccn2c1C(=O)OCc1ccc(Oc2ccc(F)cc2)cc1` [compound 203], for which the inhibition at 10 µM was < 40%.

Compound `CCc1nc2ccc(F)cn2c1C(=O)NCc1ccc(OCc2ccc(OC(F)(F)F)cc2)cc1` [compound 205, 2-Ethyl-6-fluoro-N-(4-(4-(trifluoromethoxy)benzyloxy)benzyl)imidazo[1,2-a]pyridine-3-carboxamide] showed an inhibition at 10 µM of 40 to 69%.

`CCc1nc2cc(Cl)ccn2c1C(=O)NCc1ccc(N2CC3CCCCC3C2)cc1` (stereo not shown) [compound 216, N-(4-(1H-isoindol-2(3H,3aH,4H,5H,6H,7H,7aH)-yl)benzyl)-7-chloro-2-ethylimidazo[1,2-a]pyridine-3-carboxamide] returned an inhibition at 10 µM of 40 to 69%.

On to `CCc1nc2cc(Cl)ccn2c1C(=O)NCc1ccc(-n2cc3c(c2)CCCC3)cc1` [compound 217, 7-Chloro-2-ethyl-N-(4-(4,5,6,7-tetrahydro-2H-isoindol-2-yl)benzyl)imidazo[1,2-a]pyridine-3-carboxamide], for which the inhibition at 10 µM is > 69% and the 50% inhibitory concentration (IC50) fell in the range of 1 to 20 µM.

Take `CCc1nc2ccc(C)cn2c1C(=O)NCc1ccc(Oc2ccc(OC(F)(F)F)cc2)cc1` [compound 232, 2-Ethyl-6-methyl-N-(4-(4-(trifluoromethoxy)phenoxy)benzyl)imidazo[1,2-a]pyridine-3-carboxamide]: the inhibition at 10 µM was > 69% and the IC50 was < 1 µM.

`CCc1nc2ccc(F)cn2c1C(=O)NCc1ccc(N2CCOCC2)cc1` [compound 241, 2-Ethyl-6-fluoro-N-(4-morpholinobenzyl)imidazo[1,2-a]pyridine-3-carboxamide]: the inhibition at 10 µM was < 40%.

Turning to `CCc1nc2ccc(Cl)cn2c1C(=O)NCc1ccc(N2CCCCC2C)cc1` (stereo not shown) [compound 251, 6-chloro-2-ethyl-N-(4-(2-methylpiperidin-1-yl)benzyl)imidazo[1,2-a]pyridine-3-carboxamide], the inhibition at 10 µM was < 40%.

Regarding `CCc1nc2cc(N3CCN(c4ccc(F)cc4)CC3)ccn2c1C(=O)NCc1ccc(N2CCOCC2)cc1` [compound 256, 2-Ethyl-7-(4-(4-fluorophenyl)piperazin-1-yl)-N-(4-morpholinobenzyl)imidazo[1,2-a]pyridine-3-carboxamide], the inhibition at 10 µM was < 40%.

Turning to `CCc1nc2ccc(Cl)cn2c1C(=O)NCc1ccc2oc(-c3ccc(F)cc3)nc2c1` [compound 258, 6-Chloro-2-ethyl-N-((2-(4-fluorophenyl)benzo[d]oxazol-5-yl)methyl)imidazo[1,2-a]pyridine-3-carboxamide], the inhibition at 10 µM is < 40%.

On to `CCc1nc2cc(Cl)ccn2c1C(=O)NCc1ccc2oc(-c3ccc(F)cc3)nc2c1` [compound 259, 7-Chloro-2-ethyl-N-((2-(4-fluorophenyl)benzo[d]oxazol-5-yl)methyl)imidazo[1,2-a]pyridine-3-carboxamide], for which the inhibition at 10 µM was < 40%.

As to `CCc1nc2c(Br)cccn2c1C(=O)NCc1ccc(N2CCN(c3ccc(F)cc3)CC2)cc1` [compound 260, 8-Bromo-2-ethyl-N-(4-(4-(4-fluorophenyl)piperazin-1-yl)benzyl)imidazo[1,2-a]pyridine-3-carboxamide], the inhibition at 10 µM was > 69% and the 50% inhibitory concentration (IC50) is > 20 µM.

Consider `CCc1nc2cc(OC)ccn2c1C(=O)NCc1ccc(N2CCOCC2)cc1` [compound 261, 2-Ethyl-7-methoxy-N-(4-morpholinobenzyl)imidazo[1,2-a]pyridine-3-carboxamide], for which the inhibition at 10 µM was < 40%.

`CCc1nc2c(OC)cccn2c1C(=O)NCc1ccc(N2CCOCC2)cc1` [compound 262, 2-Ethyl-8-methoxy-N-(4-morpholinobenzyl)imidazo[1,2-a]pyridine-3-carboxamide]: the inhibition at 10 µM is < 40%.

In the case of `CCc1nc2c(OC)cccn2c1C(=O)NCc1ccc(N2CCN(c3ccc(F)cc3)CC2)cc1` [compound 263, 2-Ethyl-N-(4-(4-(4-fluorophenyl)piperazin-1-yl)benzyl)-8-methoxyimidazo[1,2-a]pyridine-3-carboxamide], the inhibition at 10 µM lay within 40 to 69%.
